Key:
PSA mRNA = experiment: qRT-PCR of PSA mRNA in 22RV1 cells; assay type: cell-based, Human; conditions: 22RV1 cells treated overnight, normalized to beta-actin
Procedure: (§1) FIGS. 4C-4D are graphs showing the effect of Y1830, RG (or the fraction comprising RG) and RGA (or the fraction comprising RGA) on the mRNA of PSA (FIG. 4C) and KLK2 (FIG. 4D). 22RV1 cells were treated with Y1830, RGA or RG overnight and mRNA was extracted for qRT-PCR to determine the mRNA expression level of PSA and KLK2 as normalized to beta-actin.
(§2) RNA was extracted from herb treated cells using the Roche High Pure RNA isolation kit. cDNA was then generated from RNA samples using a Bio-rad iScript Advanced cDNA synthesis kit for RT-qPCR. qPCR was performed using human NRF2, H01, NQO1 and β-actin primers (Table 1) and iTaq™ Universal SYBR® Green Supermix in a CFX PCR machine (Bio-rad). Relative mRNA expression was calculated based on the change of the threshold cycle relative to the internal control, β-actin, using a standard curve generated by purified PCR products.

MCF7 cells = experiment: Cell growth assay, MCF7 breast cancer cells; assay type: cell-based; conditions: in the presence or absence of E2, 4 days
Procedure: (§3) MCF7, T47D, MDA-MB-453, MDA-MB-231 breast cancer cells were grown in corning T75 cell culture flask in RPMI1640 medium supplemented with 5% FBS, 50 μg/ml Kanamycin in a 37° C., 5% CO2 incubator.
(§4) 20,000 cells in 1 ml of medium (phenol red free RPMI1640, 5% charcoal-dialysis FBS, 50 μg/ml Kanamyacin) were seeded per well of a 24-well plate and incubated in a 37° C. incubator with 5% CO2 overnight. Different concentrations of herbal extract were added to each well in order to have final concentrations from 50 μg/ml to 500 μg/ml. For prostate cancer cells, DHT (25 nM) was used to stimulate androgen receptor activity. For glucocorticoid receptor overexpressed LNCaP cells, dexamethasone (50 nM) was used to stimulate glucocorticoid receptor activity. For all breast cancer cells, E2 (10 nM) was used to stimulate ER activity. Control medium without any steroid hormone was used as a control setting. After 4 days of incubation, cells were fixed and stained for 2 h with 0.5% methylene blue in 50% ethanol, followed by washing with tap water to remove unbound dye. Plates were air dried and then cells were dissolved in 1% sarkosyl (sodium lauroyl sarcosinate) by shaking at room temperature for 3 h. Cell growth was quantified based on the amount of methylene blue adsorbed by the cells as measured by a spectrophotometer (Molecular Devices) at 595 nm. […]

KLK2 mRNA = experiment: qRT-PCR of KLK2 mRNA in 22RV1 cells; assay type: cell-based, Human; conditions: 22RV1 cells treated overnight, normalized to beta-actin
Procedure: as §1, §2

[1] = target: T1, glucocorticoid receptor (GR) (Homo sapiens, UniProt P04150); experiment: PSA-luciferase reporter assay, DEX induced, 22RV1 cells; assay type: cell-based; parameters: endogenous in cells; conditions: 22RV1 PSA-luciferase reporter cells
T1 sequence (P04150 whole entry): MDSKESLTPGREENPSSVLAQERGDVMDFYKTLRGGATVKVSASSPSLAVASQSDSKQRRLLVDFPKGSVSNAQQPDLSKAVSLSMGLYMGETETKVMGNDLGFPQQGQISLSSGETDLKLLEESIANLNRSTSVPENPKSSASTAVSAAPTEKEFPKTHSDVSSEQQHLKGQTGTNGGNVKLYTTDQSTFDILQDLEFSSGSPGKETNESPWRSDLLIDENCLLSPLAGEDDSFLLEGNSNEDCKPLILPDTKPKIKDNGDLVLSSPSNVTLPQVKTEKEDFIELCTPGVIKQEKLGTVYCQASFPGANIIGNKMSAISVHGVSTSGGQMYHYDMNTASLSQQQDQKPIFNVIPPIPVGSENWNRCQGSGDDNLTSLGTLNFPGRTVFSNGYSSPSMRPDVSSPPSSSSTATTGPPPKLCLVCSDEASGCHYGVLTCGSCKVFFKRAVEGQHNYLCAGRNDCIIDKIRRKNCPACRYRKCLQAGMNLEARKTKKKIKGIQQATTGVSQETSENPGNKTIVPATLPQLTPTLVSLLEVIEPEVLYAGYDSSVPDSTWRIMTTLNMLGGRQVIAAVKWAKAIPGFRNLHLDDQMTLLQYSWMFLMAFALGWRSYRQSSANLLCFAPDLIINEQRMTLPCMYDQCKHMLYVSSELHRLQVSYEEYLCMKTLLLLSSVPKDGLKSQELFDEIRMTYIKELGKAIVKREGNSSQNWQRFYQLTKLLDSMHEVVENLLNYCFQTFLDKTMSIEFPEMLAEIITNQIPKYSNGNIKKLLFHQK
Procedure: (§5) Reporter cells were treated with herbal extracts at 30, 100, 300, and 1000 μg/ml for 24 h in a 37° C.-CO2 incubator. DHT (25 nM) was used to stimulate androgen receptor activity. Dexamethasone (50 nM) was used to stimulate glucocorticoid receptor activity Cells were lysed using luciferase lysis buffer after which luciferase buffer with luciferin was added to generate luminescence. Luminescence was recorded using a luminescence microplate reader.

H3K27 acetylation = experiment: Western blot, MCF7 and 22RV1 cells, H3K27 acetylation; assay type: cell-based; conditions: 24 h
Procedure: (§6) Western blot analysis was used to determine the protein expression using protein specific antibodies. β-actin or histone 3 was used to normalize protein loading.
(§7) Total cell lysis was conducted using 2×SDS sample buffer (62.5 mM Tris-HCl, 2% SDS, 10% glycerol, 50 mM DTT, and 0.05% bromophenol blue). The samples were sonicated for 10 s to shear DNA. Cell nuclei were isolated using Tris buffer saline with 0.4% NP40. Cell extracts were then electrophoresed through 10% SDS-polyacrylamide gels and transferred to 0.2 μm nitrocellulose membranes (Bio-Rad Laboratories, Hercules, Calif.) with a Miniprotein II transferring apparatus (Bio-Rad). The membranes were blocked and probed in TBS-T buffer (1×TBS buffer, 0.2% Tween 20) containing 5% non-fat milk. […] Enhanced chemiluminescence reagents (Perkin-Elmer Life Science Products, Boston, Mass.) were used to visualize the immunoreactive bands and the densities of protein bands were scanned analyzed using ImageJ software from the NIH.

[2] = system: SGK1 mRNA (target gene of GR); experiment: qRT-PCR of DEX induced SGK1 mRNA; assay type: cell-based; conditions: 22RV1 or PC3 cells
Excerpt: FIGS. 5D-5E are graphs showing the effect of Y1830, RG (or the fraction comprising RG), and RGA (or the fraction comprising RGA) on the DEX induced glucocorticoid receptor mediated transcriptional response of 22RV1 and PC3 PSA-luciferase reporter cells. FIGS. 5F-5G are graphs showing the effect of Y1830 on SGK1 (target gene of GR) mRNA expression with or without DEX using qRT-PCR.
as §2

Gata3 = experiment: Western blot, MCF7 cells, Gata3; assay type: cell-based; conditions: 24 h
Procedure: Western blot analysis was used to determine the protein expression using protein specific antibodies.
as §7, with “milk. Monoclonal rabbit anti-AR (1:5000), was used to detect androgen receptor (Abcam #133273), Glucocorticoid Receptor (D8H2) XP® Rabbit mAb #3660, ERa Antibody (F-10): sc-8002, BRD4 (E2A7X) Rabbit mAb #13440, Brd2 (D89B4) Rabbit mAb #5848, PARP (46D11) Rabbit mAb #9532, Acetyl-Histone H3 (Lys27) (D5E4) XP® Rabbit mAb #8173 and a monoclonal actin antibody diluted 1:2500 (Sigma, St. Louis, Mo.) was used to detect β-actin as the internal control to confirm equal protein loading.” for “milk.”

Brd2 = experiment: Western blot, MCF7 and 22RV1 cells, Brd2; assay type: cell-based; conditions: MCF7 (with or without E2) or 22RV1 (with or without DHT), 24 h
Procedure: as §6, §7

MDA-MB-453 cells = experiment: Cell growth assay, MDA-MB-453 breast cancer cells; assay type: cell-based; conditions: 4 days
Procedure: as §3, §4

[3] = target: T1, glucocorticoid receptor (GR); experiment: PSA-luciferase reporter assay, DEX induced, PC3 cells; assay type: cell-based; parameters: Western blot analysis for AR and GR protein expression in LNCaP, 22RV1 and PC3 cells; endogenous in cells; host or cells: PC3
Procedure: as §5

CD47 = experiment: Western blot, MCF7 cells, CD47; assay type: cell-based; conditions: MCF7 cells (FIG. 10)
Procedure: as §7, with “milk. Monoclonal rabbit anti-AR (1:5000), was used to detect androgen receptor (Abcam #133273), Glucocorticoid Receptor (D8H2) XP® Rabbit mAb #3660, ERa Antibody (F-10): sc-8002, BRD4 (E2A7X) Rabbit mAb #13440, Brd2 (D89B4) Rabbit mAb #5848, PARP (46D11) Rabbit mAb #9532, Acetyl-Histone H3 (Lys27) (D5E4) XP® Rabbit mAb #8173 and a monoclonal actin antibody diluted 1:2500 (Sigma, St. Louis, Mo.) was used to detect β-actin as the internal control to confirm equal protein loading.” for “milk.”

Row | SMILES | inhibition of mRNA expression of PSA (PSA mRNA) | inhibition on the growth of MCF7 cells (MCF7 cells) | inhibition of mRNA expression of KLK2 (KLK2 mRNA) | inhibitory effect on DEX induced transcriptional response [1] | H3K27 acetylation (H3K27 acetylation) | inhibition of DEX induced SGK1 mRNA expression [2] | Gata3 protein expression (Gata3) | Brd2 protein expression (Brd2) | inhibition of growth of double negative MDA-MB-453 cells (MDA-MB-453 cells) | inhibitory effect on DEX induced transcriptional response [3] | CD47 expression (CD47)
1 | Cc1c(OC2OC(CO)C(O)C(O)C2OC2OC(C)C(O)C(O)C2O)cc2c(c1O)C(=O)c1ccc(O)cc1C2=O [RG, 1,3,6-Trihydroxy-2-methyl-9,10-anthracenedione 3-O-[α-L-Rhamnopyranosyl-(1→2)-β-D-glucopyranoside]] | did not demonstrate this level of activity | very weak growth inhibition | did not demonstrate this level of activity | – | – | – | – | – | – | – | –
2 | CC(=O)OCC1OC(Oc2cc3c(c(O)c2C)C(=O)c2ccc(O)cc2C3=O)C(OC2OC(C)C(O)C(O)C2O)C(O)C1O [RGA, 1,3,6-Trihydroxy-2-methyl-9,10-anthracenedione 3-O-[α-L-Rhamnopyranosyl-(1→2)-6-O-acetyl-β-D-glucopyranoside]] | – | – | – | inhibitory effect | selectively decreased | inhibited | downregulation | decreased | inhibited the growth | inhibitory effect | downregulation

From patent publication US20210196779A1, “Compositions and Methods for Treating Steroid Hormone-Related Diseases or Disorders” (YALE UNIVERSITY, priority 2018, published 2021)
